One compound from patent publication EP0003788B1, “Glycofuranosyl-nitrosourea derivatives, process for their manufacture and their pharmaceutical preparations” (CIBA-GEIGY AG, priority 1978, dated 1979) can be followed below.

One data set deals with Ehrlich-Ascites-Karzinom. As to the kind of experiment: Inhibition of tumour growth, Ehrlich ascites carcinoma in mice. Format: in vivo, Mäusen.
Another data set concerns Walker CaSa 256. The data set is described as follows: Inhibition of tumour growth, Walker CaSa 256 in rats. Format: in vivo, Ratten.
The test system of a further data set is Leukämie L 1210. As to the kind of experiment: Prolongation of life, leukaemia L 1210 in mice. The data set is classed as in vivo, Mäusen. As for the experimental part:
So bewirken sie in Dosen von 25-500 mg/kg i.p. eine starke Hemmung des Tumorwachstums bei Mäusen mit z.B. Ehrlich-Ascites-Karzinom und bei Ratten mit z.B. Walker CaSa 256. Analoge Dosen bewirken eine Lebensverlängerung gegenüber Kontrollen bei Mäusen mit z.B. Leukämie L 1210.

The nature of data set [1]: Tolerability and side effects on treatment. Format: in vivo.
Data set [2] in a line: Macroscopic organ changes in normal animals after three weeks of peroral treatment. Format: in vivo.

`CCO[C@@H]1O[C@H]([C@@H](CNC(=O)N(C)N=O)OC)[C@H](O)[C@H]1O` [Äthyl-6-desoxy-5-0-methyl-6-(3-methyl-3-nitroso-ureido)-ß-D-glucofuranosid]: the “Hemmung des Wachstums der genannten Tumoren” value with Ehrlich-Ascites-Karzinom (50-250 mg/kg i.p., mice with Ehrlich ascites carcinoma) was 80-100%; in the data set on Ehrlich-Ascites-Karzinom (p.o. application, Ehrlich ascites carcinoma) it was “Ähnliche Resultate”; with Walker CaSa 256 (50-250 mg/kg i.p., rats with Walker CaSa 256) it was 80-100%; with Walker CaSa 256 (p.o. application, Walker CaSa 256), “Ähnliche Resultate”. The Lebensverlängerung with Leukämie L 1210 (50-250 mg/kg i.p.) is on record as greater than 90%; in the data set on Leukämie L 1210 (p.o. application), “Ähnliche Resultate”. Also, in data set [1] (also on prolonged treatment), the Nebenwirkungen entry was “nicht festzustellen”. Also, the Verträglichkeit result in data set [1] (in vivo) is reported as “gut”. In data set [2], the Organveränderungen entry was “keine Organveränderungen”.
